US9302999B2, “Substituted triazoles as herbicides” (E. I. DU PONT DE NEMOURS AND COMPANY, priority 2012, dated 2016)

Legend:
Assay type in all cases: in vivo
[1] = system: oilseed rape (Brassica napus); assay: Test D pre-/postemergence: oilseed rape
Procedure, shortened: (§1)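 Scores run from 0 (no effect) to 100 (complete control), assigned by visual comparison with controls after 14 to 21 days in a controlled environment. Both preemergence application to silt loam and postemergence application to 1- to 4-leaf plants were tested.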

[2] = system: barnyardgrass (Echinochloa crus-galli); assay: Test F pre-/postemergence: barnyardgrass
Procedure, shortened: (§2)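 0–100 visual control scores, taken 14–21 d after application in the greenhouse. Preemergence treatment was made to silt loam soil at sowing. Postemergence sprays hit 1- to 4-leaf plants (2–18 cm) in peat/vermiculite mix. Surfactant-containing non-phytotoxic solvent served as the vehicle.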

[3] = system: pigweed (Amaranthus retroflexus); assay: Test D pre-/postemergence: pigweed
Procedure, shortened: as §1

[4] = system: galium (catchweed bedstraw, Galium aparine); assay: Test D pre-/postemergence: galium; settings: Postemergence
Procedure, shortened: as §1

[5] = system: poinsettia, wild (wild poinsettia, Euphorbia heterophylla); assay: Test F pre-/postemergence: poinsettia, wild
Procedure, shortened: as §2

[6] = system: crabgrass, Brazil (Brazilian crabgrass, Digitaria horizontalis); assay: Test F pre-/postemergence: crabgrass, Brazil
Description: Seeds of plant species selected from corn (Zea mays), soybean (Glycine max), velvetleaf (Abutilon theophrasti), lambsquarters (Chenopodium album), poinsettia, wild (wild poinsettia, Euphorbia heterophylla), pigweed, palmer (palmer pigweed, Amaranthus palmeri), waterhemp (common waterhemp, Amaranthus rudis), surinam grass (Brachiaria decumbens), crabgrass, Brazil (Brazilian crabgrass, Digitaria horizontalis), panicum, fall (fall panicum Panicum dichotomiflorum), crabgrass, large (large crabgrass, Digitaria sanguinalis), foxtail, giant (giant foxtail, Setaria faberii), foxtail, green (green foxtail Setaria viridis), goosegrass (Eleusine indica), ragweed (common ragweed, Ambrosia elatior), barnyardgrass (Echinochloa crus-galli), sandbur (southern sandbur, Cenchrus echinatus), arrowleaf sida (Sida rhombifolia), ryegrass, Italian (Italian ryegrass, Lolium multiflorum), dayflower, VA (Virginia (VA) dayflower, Commelina virginica), field bindweed (Convolvulus arvensis), cocklebur (common cocklebur, Xanthium strumarium), morningglory (Ipomoea coccinea), nightshade (eastern black nightshade, Solanum ptycanthum), kochia (Kochia scoparia), nutsedge, yellow (yellow nutsedge, Cyperus esculentus), johnsongrass (Sorghum halepense), smartweed (ladysthumb smartweed, Polygonum persicaria), and beggarticks (hairy beggarticks, Bidens pilosa), were planted into a silt loam soil and treated preemergence with test chemicals formulated in a non-phytotoxic solvent mixture which included a surfactant. At the same time, plants selected from these crop and weed species and also pigweed (Amaranthus retroflexus), waterhemp_RES1 (ALS/Triazine resistant common waterhemp, Amaranthus rudis) and waterhemp_RES2 (ALS/HPPD resistant common waterhemp, Amaranthus rudis) were planted in pots containing a planting medium comprising spaghnum peat moss, vermiculite, wetting agent and starter nutrients treated with postemergence applications of some of the test chemicals formulated in the same manner. Plants ranged in height from 2 to 18 cm for postemergence treatments (1- to 4-leaf stage).
Treated plants and controls were maintained in a greenhouse for 14 to 21 days, after which time all species were compared to controls and visually evaluated. Plant response ratings, summarized in Table E, are based on a scale of 0 to 100 where 0 is no effect and 100 is complete control. A dash (-) response means no test result.

[7] = system: foxtail, green (green foxtail, Setaria viridis); assay: Test D pre-/postemergence: foxtail, green
Procedure, shortened: as §1

[8] = Postemergence, 31 g ai/ha, scale 0 to 100 (0 no effect, 100 complete control)
[9] = Postemergence, 62 g ai/ha, scale 0 to 100 (0 no effect, 100 complete control)
[10] = Postemergence, 125 g ai/ha, scale 0 to 100, 0 no effect, 100 complete control
[11] = Postemergence, 16 g ai/ha, scale 0 to 100
[12] = Preemergence, 16 g ai/ha, scale 0 to 100, 0 no effect, 100 complete control
[13] = Preemergence, 31 g ai/ha, scale 0 to 100, 0 no effect, 100 complete control
[14] = Preemergence, 62 g ai/ha, scale 0 to 100
[15] = Preemergence, 125 g ai/ha, scale 0 to 100
[16] = Preemergence, 250 g ai/ha, scale 0 to 100
[17] = Postemergence, 250 g ai/ha, scale 0 to 100
[18] = Postemergence, 31 g ai/ha, scale 0 to 100
[19] = Postemergence, 62 g ai/ha, scale 0 to 100
[20] = Postemergence, 125 g ai/ha, scale 0 to 100

Structure (SMILES): CCc1nn(-c2ccc(C(F)(F)F)cc2)nc1Cc1ccnc(C(F)(F)F)c1 [Compound 155]
- Plant response rating: Oilseed Rape [1, 8]: 100
- Plant response rating: Oilseed Rape [1, 9]: 100
- Plant response rating: Oilseed Rape [1, 10]: 100
- Plant response rating, Oilseed Rape [1, 11]: 85
- Plant response rating, Oilseed Rape [1, 12]: 0
- Plant response rating, Oilseed Rape [1, 13]: 5
- Plant response rating, Oilseed Rape [1, 14]: 100
- Plant response rating, Oilseed Rape [1, 15]: 100
- Plant response rating, Barnyardgrass [2, 14]: 30
- Plant response rating, Barnyardgrass [2, 15]: 30
- Plant response rating, Barnyardgrass [2, 16]: 100
- Plant response rating: Pigweed [3, 8]: 75
- Plant response rating: Pigweed [3, 9]: 95
- Plant response rating: Pigweed [3, 10]: 95
- Plant response rating, Pigweed [3, 11]: 70
- Plant response rating, Pigweed [3, 12]: 60
- Plant response rating, Pigweed [3, 13]: 80
- Plant response rating, Pigweed [3, 14]: 100
- Plant response rating, Pigweed [3, 15]: 100
- Plant response rating: Galium ([4]; 31 g ai/ha, scale 0 to 100 (0 no effect, 100 complete control)): 70
- Plant response rating: Galium ([4]; 62 g ai/ha, scale 0 to 100 (0 no effect, 100 complete control)): 70
- Plant response rating: Galium ([4]; 125 g ai/ha, scale 0 to 100, 0 no effect, 100 complete control): 75
- Plant response rating, Galium ([4]; 16 g ai/ha, scale 0 to 100): 65
- Plant response rating, Poinsettia, Wild [5, 15]: 80
- Plant response rating, Poinsettia, Wild [5, 16]: 100
- Plant response rating, Crabgrass, Brazil [6, 14]: 100
- Plant response rating, Crabgrass, Brazil [6, 15]: 100
- Plant response rating, Crabgrass, Brazil [6, 16]: 100
- Plant response rating: Foxtail, Green [7, 8]: 15
- Plant response rating: Foxtail, Green [7, 9]: 70
- Plant response rating: Foxtail, Green [7, 10]: 80
- Plant response rating, Foxtail, Green [7, 11]: 20
- Plant response rating, Foxtail, Green [7, 12]: 20
- Plant response rating, Foxtail, Green [7, 13]: 65
- Plant response rating, Foxtail, Green [7, 14]: 85
- Plant response rating, Foxtail, Green [7, 15]: 100

Structure (SMILES): CCc1nn(-c2ccc(C(F)(F)F)cc2)nc1Oc1ccnc(C(F)(F)F)c1 [Compound 169]
- Plant response rating, Barnyardgrass [2, 17]: 40
- Plant response rating, Barnyardgrass [2, 11]: 0
- Plant response rating, Barnyardgrass [2, 18]: 0
- Plant response rating, Barnyardgrass [2, 19]: 15
- Plant response rating, Barnyardgrass [2, 20]: 25
- Plant response rating, Barnyardgrass [2, 12]: 0
- Plant response rating, Barnyardgrass [2, 13]: 0
- Plant response rating, Barnyardgrass [2, 14]: 20
- Plant response rating, Barnyardgrass [2, 15]: 60
- Plant response rating, Barnyardgrass [2, 16]: 95
- Plant response rating, Poinsettia, Wild [5, 17]: 85
- Plant response rating, Poinsettia, Wild [5, 11]: 50
- Plant response rating, Poinsettia, Wild [5, 18]: 60
- Plant response rating, Poinsettia, Wild [5, 19]: 60
- Plant response rating, Poinsettia, Wild [5, 20]: 70
- Plant response rating, Poinsettia, Wild [5, 12]: 0
- Plant response rating, Poinsettia, Wild [5, 13]: 0
- Plant response rating, Poinsettia, Wild [5, 15]: 40
- Plant response rating, Poinsettia, Wild [5, 16]: 98
- Plant response rating, Crabgrass, Brazil [6, 17]: 30
- Plant response rating, Crabgrass, Brazil [6, 11]: 20
- Plant response rating, Crabgrass, Brazil [6, 18]: 20
- Plant response rating, Crabgrass, Brazil [6, 19]: 20
- Plant response rating, Crabgrass, Brazil [6, 20]: 20
- Plant response rating, Crabgrass, Brazil [6, 12]: 100
- Plant response rating, Crabgrass, Brazil [6, 13]: 100
- Plant response rating, Crabgrass, Brazil [6, 14]: 100
- Plant response rating, Crabgrass, Brazil [6, 15]: 100
- Plant response rating, Crabgrass, Brazil [6, 16]: 100

Structure (SMILES): CCc1nn(-c2ccc(F)c(F)c2)nc1Oc1ccnc(C(F)(F)F)c1 [Compound 171]
- Plant response rating, Barnyardgrass [2, 12]: 0
- Plant response rating, Barnyardgrass [2, 13]: 5
- Plant response rating, Barnyardgrass [2, 14]: 5
- Plant response rating, Barnyardgrass [2, 15]: 80
- Plant response rating, Barnyardgrass [2, 16]: 100
- Plant response rating, Poinsettia, Wild [5, 12]: 0
- Plant response rating, Poinsettia, Wild [5, 13]: 0
- Plant response rating, Poinsettia, Wild [5, 15]: 10
- Plant response rating, Poinsettia, Wild [5, 16]: 10
- Plant response rating, Crabgrass, Brazil [6, 12]: 0
- Plant response rating, Crabgrass, Brazil [6, 13]: 98
- Plant response rating, Crabgrass, Brazil [6, 14]: 100
- Plant response rating, Crabgrass, Brazil [6, 15]: 100
- Plant response rating, Crabgrass, Brazil [6, 16]: 100

Structure (SMILES): CCCc1nn(-c2ccc(F)c(F)c2)nc1Oc1ccnc(C(F)(F)F)c1 [Compound 172]
- Plant response rating, Barnyardgrass [2, 17]: 85
- Plant response rating, Barnyardgrass [2, 18]: 20
- Plant response rating, Barnyardgrass [2, 20]: 50
- Plant response rating, Barnyardgrass [2, 13]: 70
- Plant response rating, Barnyardgrass [2, 15]: 100
- Plant response rating, Barnyardgrass [2, 16]: 100
- Plant response rating, Poinsettia, Wild [5, 17]: 100
- Plant response rating, Poinsettia, Wild [5, 18]: 80
- Plant response rating, Poinsettia, Wild [5, 20]: 100
- Plant response rating, Poinsettia, Wild [5, 13]: 20
- Plant response rating, Poinsettia, Wild [5, 15]: 50
- Plant response rating, Poinsettia, Wild [5, 16]: 98
- Plant response rating, Crabgrass, Brazil [6, 17]: 90
- Plant response rating, Crabgrass, Brazil [6, 18]: 50
- Plant response rating, Crabgrass, Brazil [6, 20]: 70
- Plant response rating, Crabgrass, Brazil [6, 13]: 100
- Plant response rating, Crabgrass, Brazil [6, 15]: 100
- Plant response rating, Crabgrass, Brazil [6, 16]: 100
